Data reported in patent US12409206B2, “Use of cyclosporine analogues for treating fibrosis” (Hepion Pharmaceuticals, Inc., priority 2020, dated 2025).

Assays:
Format in all cases: cell-based
[1] = test system: human precision cut IPF lung slices; assay: Gene expression (RT-PCR) in precision cut IPF lung slices in culture; conditions: CRV431 applied at 5 μM; Day 6 of culture after 4 days of treatment; β actin reference
Method: (§1) This example describes a study conducted with precision cut lung slices. Precision cut slices from explanted lung tissue from a patient with biopsy-confirmed, idiopathic pulmonary fibrosis (IPF) were cultured for 6 days. Treatments were applied to 6 replicate slices per treatment on Day 2 of culture and replaced daily on Days 3, 4, and 5 of culture.
For generating the results of gene expression shown in FIG. 6B, RNA was isolated from 6 pooled lung slices per treatment on Day 6 of culture following 4 days of drug or vehicle treatment and evaluated by reverse transcription-polymerase chain reaction (RT-PCR) for 6 markers of inflammation and fibrosis: MCP-1, IL-6, TGFβ TIMP1, collagen 1α1, and α-smooth muscle actin (αSMA). β actin was used as a reference gene to calculate relative levels of each target gene RNA.

[2] = test system: human precision cut liver slices (PCLS); assay: PCLS gene expression by RT-PCR; conditions: CRV431 applied at 5 μM; markers MCP-1, IL-6, TIMP1, αSMA, collagen 1α1
Method: (§2) PCLS were obtained from 5 human donors who underwent resection of liver cancer. Replicate slices were collected from healthy margins of the resections and cultured for 4 or 6 days depending on the experimental protocol. In the Nonstimulation Protocol slices were cultured for 6 days and treated for the entire period with DMSO vehicle or 5 μM CRV431. In the Stimulation Protocol slices were rested for 1 day and then administered the cytokines, TGFβ and PDGF-BB, for 3 days to stimulate inflammation and fibrosis. DMSO vehicle, CRV431 (1 and 5 μM), Alk5i (10 μM), obeticholic acid (5 μM), elafibranor (5 μM), resmetirom ([…]), and Aramchol (5 μM) were administered individually as drug treatments in the Stimulation Protocol concurrent with TGFβ+PDGF-BB. Culture medium treatments were replaced daily.
(§3) Four types of evaluations were conducted on the PCLS: (a) secretion of inflammation and fibrosis biomarkers into the culture medium, (b) histological staining and quantitation of Sirius red as a measure of tissue fibrosis, (c) gene expression of inflammation and fibrosis biomarkers by RT-PCR, and (d) RNA sequencing (RNA-Seq) of the complete transcriptome. Each of the four types of evaluation is described below: • (a) Biomarker secretion. Spent culture medium was collected daily from duplicate slices for each treatment. ELISAs were used to quantify secretion of monocyte chemoattractant protein (MCP-1), interleukin-6 (IL-6), tissue inhibitor of metalloproteinase-1 (TIMP1), hyaluronic acid, fibronectin, and collagen 1α1. For each donor the mean level of biomarker secretion in each treatment group was expressed as a percentage change relative to DMSO vehicle, the percentages averaged for all donors, and finally the mean daily percentage change calculated from all days of evaluation. […] Sirius red was quantified morphometrically in the histological sections as the percentage area with Sirius red staining in 10 sections from each treatment. In the Nonstimulation Protocol the quantity of Sirius red staining was expressed relative to the vehicle group. In the Stimulation Protocol the quantity of Sirius red staining was expressed relative to nonstimulated PCLS (0%) and TGFβ+PDGF-BB-stimulated+vehicle PCLS (100%). […] RNA was isolated from duplicate liver slices per treatment at the end of the experiments and evaluated by RT-PCR for 5 markers of inflammation and fibrosis: MCP-1, IL-6, TIMP1, αSMA, and collagen 1α1. β actin was used as a reference gene to calculate relative levels of each target gene RNA. […] RNA sequencing of the complete transcriptome (30 million reads per sample) was conducted on vehicle and 5 μM CRV431 treatment groups from 3 donors both from the Nonstimulation and Stimulation Protocols. […]

[3] = test system: human precision cut liver slices (PCLS); assay: PCLS biomarker secretion (ELISA); conditions: CRV431 applied at 5 μM; markers MCP-1, IL-6, TIMP1, hyaluronic acid, fibronectin, collagen 1α1
Method: as §2, §3

[4] = test system: human precision cut IPF lung slices; assay: Secreted markers (ELISA) in precision cut IPF lung slices in culture; conditions: CRV431 applied at 5 μM; 4 daily treatment intervals; relative to DMSO vehicle
Method: as §1
For generating the results of secreted marker (% daily average change) shown in FIG. 6A, spent medium (24-hr intervals) was collected on Days 3, 4, 5, and 6 to measure secretion by ELISA of six markers of inflammation and fibrosis: monocyte chemoattractant protein (MCP-1), interleukin-6 (IL-6), matrix metalloproteinase-7 (MMP-7), tissue inhibitor of metalloproteinase-1 (TIMP1), hyaluronic acid, and collagen 1α1. The mean level of secretion from 6 replicate slices for each drug treatment was expressed as a percentage change relative to DMSO vehicle treatment for each day of treatment, and then the mean percentage change from 4 daily treatment intervals was calculated.

Cc1ccc(=O)n(-c2ccccc2)c1 [pirfenidone, reference compound]
decreased: gene expression of all markers (MCP-1, IL-6, TGFβ, TIMP1, collagen 1α1, αSMA) [1] | gene expression of all markers [2] | mean daily secretion of all markers [3] | mean daily secretion of all markers (MCP-1, IL-6, MMP-7, TIMP1, hyaluronic acid, collagen 1α1) [4]

COC(=O)c1ccc2c(c1)NC(=O)/C2=C(\Nc1ccc(N(C)C(=O)CN2CCN(C)CC2)cc1)c1ccccc1 [nintedanib, reference compound]
decreased: gene expression of all markers (MCP-1, IL-6, TGFβ, TIMP1, collagen 1α1, αSMA) [1] | gene expression of all markers [2] | mean daily secretion of all markers [3] | mean daily secretion of all markers (MCP-1, IL-6, MMP-7, TIMP1, hyaluronic acid, collagen 1α1) [4]
